22 compounds from patent publication US10196364B2, “Pyrimidine carboxamides as sodium channel blockers” (Purdue Pharma L.P., priority 2013, dated 2019) can be followed below.

What is called IC50 is the concentration needed to halve the response being measured.

In this experiment the target is human Nav1.7 (Homo sapiens, UniProt Q15858). Put plainly: FLIPR sodium dye assay (CoroNa Green AM Na+ dye, primary fluorescence assay) in recombinant Nav1.7/HEK293 cells. Conditions: Table 6; CoroNa Green AM Na+ dye primary fluorescence assay; read-out: Nav1.7 Activity (μM) FLIPR assay IC50. It counts as cell-based.
Chain of human Nav1.7 (Q15858 1-1977 isoform Q15858-3): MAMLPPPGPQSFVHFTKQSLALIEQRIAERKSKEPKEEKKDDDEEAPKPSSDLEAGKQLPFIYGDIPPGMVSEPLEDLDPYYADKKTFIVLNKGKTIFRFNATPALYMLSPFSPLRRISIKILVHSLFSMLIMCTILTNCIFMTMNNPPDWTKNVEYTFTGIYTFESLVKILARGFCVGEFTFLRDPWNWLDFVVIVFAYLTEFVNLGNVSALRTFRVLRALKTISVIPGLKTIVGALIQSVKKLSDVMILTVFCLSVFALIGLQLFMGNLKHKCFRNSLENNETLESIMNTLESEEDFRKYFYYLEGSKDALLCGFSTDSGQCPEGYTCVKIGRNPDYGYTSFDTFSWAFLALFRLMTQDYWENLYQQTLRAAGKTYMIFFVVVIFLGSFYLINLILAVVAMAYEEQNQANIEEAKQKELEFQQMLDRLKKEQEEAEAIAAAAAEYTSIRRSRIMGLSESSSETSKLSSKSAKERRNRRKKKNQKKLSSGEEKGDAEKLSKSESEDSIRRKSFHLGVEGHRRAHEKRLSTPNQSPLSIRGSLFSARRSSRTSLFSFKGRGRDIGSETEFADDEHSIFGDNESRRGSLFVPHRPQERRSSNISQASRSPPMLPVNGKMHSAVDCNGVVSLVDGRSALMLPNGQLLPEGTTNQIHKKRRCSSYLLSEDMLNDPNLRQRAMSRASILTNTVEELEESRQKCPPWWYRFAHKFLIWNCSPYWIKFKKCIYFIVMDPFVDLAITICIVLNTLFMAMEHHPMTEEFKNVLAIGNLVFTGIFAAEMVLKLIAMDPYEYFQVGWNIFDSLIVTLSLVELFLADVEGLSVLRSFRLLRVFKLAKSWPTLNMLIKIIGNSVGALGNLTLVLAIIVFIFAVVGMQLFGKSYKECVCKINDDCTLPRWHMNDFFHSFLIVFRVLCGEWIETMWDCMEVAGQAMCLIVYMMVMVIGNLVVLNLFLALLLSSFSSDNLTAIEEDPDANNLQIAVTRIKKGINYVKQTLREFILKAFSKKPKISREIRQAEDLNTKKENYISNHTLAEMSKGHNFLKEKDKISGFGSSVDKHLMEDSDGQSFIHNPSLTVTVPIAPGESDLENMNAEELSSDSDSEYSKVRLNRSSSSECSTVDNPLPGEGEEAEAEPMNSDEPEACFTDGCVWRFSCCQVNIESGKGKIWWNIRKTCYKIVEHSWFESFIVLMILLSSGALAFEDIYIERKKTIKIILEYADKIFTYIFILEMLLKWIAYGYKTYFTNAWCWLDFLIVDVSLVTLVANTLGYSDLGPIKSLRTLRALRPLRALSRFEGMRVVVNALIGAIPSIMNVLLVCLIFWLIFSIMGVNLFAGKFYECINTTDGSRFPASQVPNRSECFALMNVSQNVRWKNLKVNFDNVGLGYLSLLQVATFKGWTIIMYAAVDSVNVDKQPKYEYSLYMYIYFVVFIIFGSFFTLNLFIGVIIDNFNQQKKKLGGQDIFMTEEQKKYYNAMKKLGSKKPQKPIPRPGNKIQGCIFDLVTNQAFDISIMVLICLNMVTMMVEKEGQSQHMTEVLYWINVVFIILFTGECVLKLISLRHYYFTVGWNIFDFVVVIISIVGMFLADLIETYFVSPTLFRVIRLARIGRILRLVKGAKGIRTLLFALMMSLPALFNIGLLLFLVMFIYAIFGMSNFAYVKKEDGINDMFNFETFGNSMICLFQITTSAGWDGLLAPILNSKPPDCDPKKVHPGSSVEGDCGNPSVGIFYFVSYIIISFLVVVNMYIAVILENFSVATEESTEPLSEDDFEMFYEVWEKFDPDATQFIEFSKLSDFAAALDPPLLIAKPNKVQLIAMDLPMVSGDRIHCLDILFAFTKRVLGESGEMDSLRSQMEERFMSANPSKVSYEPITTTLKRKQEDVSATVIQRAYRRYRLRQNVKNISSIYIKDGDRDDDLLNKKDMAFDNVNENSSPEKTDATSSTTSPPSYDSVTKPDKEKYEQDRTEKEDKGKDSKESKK
On to `C[C@H](Nc1cc(C(N)=O)nc(-c2ccc(Oc3cnc(C4CC4)cn3)cc2)n1)C(N)=O` [Cpd No. 195, (S)-6-((1-amino-1-oxopropan-2-yl)amino)-2-(4-((5-cyclopropyl-pyrazin-2-yl)oxy)phenyl)-pyrimidine-4-carboxamide], for which the IC50 was more than 20 µM.

As for `C[C@H](Oc1cc(C(N)=O)nc(-c2ccc(Oc3ccc(C(F)(F)F)cc3CN3CCCC3)cc2)n1)C(=O)O` [Cpd No. 184, (S)-2-((6-carbamoyl-2-(4-(2-(pyrrolidin-1-ylmethyl)-4-(trifluoromethyl)phenoxy)-phenyl)pyrimidin-4-yl)oxy)propanoic acid], the IC50 was determined as 9.72 µM. To `C[C@H](Nc1cc(C(N)=O)nc(-c2ccc(Oc3ccc(F)cc3)c(C(N)=O)c2)n1)C(N)=O` [compound 111, (S)-6-((1-amino-1-oxopropan-2-yl)amino)-2-(3-carbamoyl-4-(4-fluorophenoxy)phenyl)pyrimidine-4-carboxamide] belongs 7.88 µM; to `NC(=O)c1cc(N[C@H]2CCNC2=O)nc(N2[C@@H]3CC[C@H]2C[C@H](Oc2ccc(F)cc2Cl)C3)n1` [Cpd No. 182, 2-((1R,3R,5S)-3-(2-chloro-4-fluorophenoxy)-8-azabicyclo[3.2.1]octan-8-yl)-6-(((S)-2-oxopyrrolidin-3-yl)amino)pyrimidine-4-carboxamide], 0.35 µM. Regarding `COc1cnc(Oc2ccc(-c3nc(N[C@@H](C)C(N)=O)cc(C(N)=O)n3)cc2)cn1` [Cpd No. 198, (S)-6-((1-amino-1-oxopropan-2-yl)amino)-2-(4-((5-methoxy-pyrazin-2-yl)oxy)phenyl)-pyrimidine-4-carboxamide], the 50% inhibitory concentration (IC50) is more than 20 µM. To `C=CCN1CC[C@H](Oc2cc(C(N)=O)nc(-c3ccc(Oc4ccc(F)cc4)cc3)n2)C1=O` [compound 122, (S)-6-((1-allyl-2-oxopyrrolidin-3-yl)oxy)-2-(4-(4-fluorophenoxy)phenyl)pyrimidine-4-carboxamide] belongs 0.8 µM; to `CC1CN1Cc1cc(Oc2ccc(F)cc2)ccc1-c1nc(N[C@H]2CCNC2=O)cc(C(N)=O)n1` (stereo partly drawn) [Cpd No. 188, 2-(4-(4-fluorophenoxy)-2-((2-methylaziridin-1-yl)methyl)-phenyl)-6-(((S)-2-oxopyrrolidin-3-yl)amino)pyrimidine-4-carboxamide], 4.64 µM; to `NC(=O)c1cc(N[C@H]2CCNC2=O)nc(-c2ccc(Oc3ccc(OCC(F)(F)F)cn3)cc2)n1` [compound 144, (S)-6-((2-oxopyrrolidin-3-yl)amino)-2-(4-((5-(2,2,2-trifluoroethoxy)pyridin-2-yl)oxy)phenyl)pyrimidine-4-carboxamide], 1.18 µM. The value for `NC(=O)c1cc(N[C@H]2CCNC2=O)nc(-c2ccc(Oc3ccc(C(F)(F)F)cc3CN3CCCCC3)cc2)n1` [Cpd No. 194, (S)-6-((2-oxopyrrolidin-3-yl)amino)-2-(4-(2-(piperidin-1-ylmethyl)-4-(trifluoromethyl)-phenoxy)phenyl)pyrimidine-4-carboxamide] was 2.18 µM. Take `C[C@H](Nc1cc(C(N)=O)nc(-c2ccc(Oc3ccc(C(F)(F)F)cc3CN3CCCC3)cc2)n1)C(N)=O` [compound 170, (S)-6-((1-amino-1-oxopropan-2-yl)amino)-2-(4-(2-(pyrrolidin-1-ylmethyl)-4-(trifluoromethyl)phenoxy)phenyl) pyrimidine-4-carboxamide]: the IC50 turned out to be 1.17 µM. Take `NC(=O)c1cc(N[C@H]2CCNC2=O)nc(Nc2ccc(Oc3ccc(C(F)(F)F)cn3)cc2)n1` [compound 172, (S)-6-((2-oxopyrrolidin-3-yl)amino)-2-((4-((5-(trifluoromethyl)pyridin-2-yl)oxy)phenyl)amino)pyrimidine-4-carboxamide]: the IC50 is 2.07 µM. With `C[C@H](Oc1cc(C(N)=O)nc(-c2ccc(Oc3ccc4c(c3)CCC4)cc2)n1)C(N)=O` [compound 129, (S)-6-((1-amino-1-oxopropan-2-yl)oxy)-2-(4-((2,3-dihydro-1H-inden-5-yl)oxy)phenyl)pyrimidine-4-carboxamide], the half-inhibitory concentration (IC50) turned out to be 0.26 µM. For `NC(=O)c1cc(NCc2ncc[nH]2)nc(-c2ccc(Oc3ccc(F)cc3)cc2)n1` [Cpd No. 179, 6-(((1H-imidazol-2-yl)methyl)amino)-2-(4-(4-fluorophenoxy)phenyl)-pyrimidine-4-carboxamide], the IC50 was more than 20 µM.

With `NC(=O)c1cc(N2CC[C@H]2C(N)=O)nc(-c2ccc(Oc3ccc(F)cc3)cc2)n1` [compound 132, (S)-6-(2-carbamoylazetidin-1-yl)-2-(4-(4-fluorophenoxy)phenyl)pyrimidine-4-carboxamide], the concentration for half-maximal inhibition (IC50) amounted to 0.28 µM.

On to `NC(=O)c1cc(N[C@H]2CCNC2=O)nc(N2C3CCC2CC(Oc2ccc(F)cc2)C3)n1` (stereo partly drawn) [compound 159, 2-(3-(4-fluorophenoxy)-8-azabicyclo[3.2.1]octan-8-yl)-6-(((S)-2-oxopyrrolidin-3-yl)amino)pyrimidine-4-carboxamide], for which the IC50 was determined as 1.29 µM.

As for `NC(=O)c1cc(N[C@H]2CCNC2=O)nc(-c2ccc(Oc3ccc(F)cc3)c(CN3CCCCC3)c2)n1` [compound 143, (S)-2-(4-(4-fluorophenoxy)-3-(piperidin-1-ylmethyl)phenyl)-6-((2-oxopyrrolidin-3-yl)amino)pyrimidine-4-carboxamide], the concentration for half-maximal inhibition (IC50) worked out at 1.3 µM. For the compound `C[C@H](Nc1cc(C(N)=O)nc(-c2ccc(Oc3ccc(C#N)cc3)cc2C(F)(F)F)n1)C(N)=O` [compound 128, (S)-6-((1-amino-1-oxopropan-2-yl)amino)-2-(4-(4-cyanophenoxy)-2-(trifluoromethyl)phenyl)pyrimidine-4-carboxamide], the half-inhibitory concentration (IC50) is more than 20 µM. Take `CN1CCN(c2cc(Oc3ccc(-c4nc(N[C@H]5CCNC5=O)cc(C(N)=O)n4)cc3)ccc2C(F)(F)F)CC1` [Cpd No. 210, (S)-2-(4-(3-(4-methylpiperazin-1-yl)-4-(trifluoromethyl)phenoxy)phenyl)-6-((2-oxopyrrolidin-3-yl)amino)pyrimidine-4-carboxamide]: the concentration for half-maximal inhibition (IC50) was 1.94 µM. To `C[C@H](Nc1cc(C(N)=O)nc(N2C3CCC2CC(Oc2ccc(C(F)(F)F)cc2-c2ccncc2)C3)n1)C(N)=O` (stereo partly drawn) [compound 155, 6-(((S)-1-amino-1-oxopropan-2-yl)amino)-2-(3-(2-(pyridin-4-yl)-4-(trifluoromethyl)phenoxy)-8-azabicyclo[3.2.1]octan-8-yl)pyrimidine-4-carboxamide] belongs 4.1 µM; to `O=C(O)c1cc(N[C@H]2CCNC2=O)nc(-c2ccc(Oc3ccc(C(F)(F)F)cn3)cc2)n1` [compound 157, (S)-6-((2-oxopyrrolidin-3-yl)amino)-2-(4-((5-(trifluoromethyl)pyridin-2-yl)oxy)phenyl)pyrimidine-4-carboxylic acid], more than 20 µM. To `NC(=O)c1cc(OCCN2CCNC2=O)nc(-c2ccc(Oc3ccc(C(F)(F)F)cc3)cc2)n1` [compound 127, 6-(2-(2-oxoimidazolidin-1-yl)ethoxy)-2-(4-(4-(trifluoromethyl)phenoxy)phenyl) pyrimnidine-4-carboxamide] belongs 0.26 µM; to `CC(C)(CO)[C@H](Oc1cc(C(N)=O)nc(-c2ccc(Oc3ccc(C(F)(F)F)cc3)cc2)n1)C(N)=O` [compound 120, (S)-6-((1-amino-4-hydroxy-3,3-dimethyl-1-oxobutan-2-yl)oxy)-2-(4-(4-(trifluoromethyl)phenoxy)phenyl) pyrimidine-4-carboxamide], 0.76 µM.
